One may read the IC50 as the concentration at which inhibition is half-maximal. Low readings indicate greater potency in that assay, high ones weaker potency in that assay. What is called kinetic solubility is the concentration staying in solution when a stock, usually in DMSO, is diluted into the medium.

Each structure is given as a SMILES string. Converted amounts (≈) assume the structure as drawn.

These results are taken from patent publication US20230115176A1 (Ra Pharmaceuticals, Inc., priority 2019, published 2023).

T1 sequence (P01031 19-1676): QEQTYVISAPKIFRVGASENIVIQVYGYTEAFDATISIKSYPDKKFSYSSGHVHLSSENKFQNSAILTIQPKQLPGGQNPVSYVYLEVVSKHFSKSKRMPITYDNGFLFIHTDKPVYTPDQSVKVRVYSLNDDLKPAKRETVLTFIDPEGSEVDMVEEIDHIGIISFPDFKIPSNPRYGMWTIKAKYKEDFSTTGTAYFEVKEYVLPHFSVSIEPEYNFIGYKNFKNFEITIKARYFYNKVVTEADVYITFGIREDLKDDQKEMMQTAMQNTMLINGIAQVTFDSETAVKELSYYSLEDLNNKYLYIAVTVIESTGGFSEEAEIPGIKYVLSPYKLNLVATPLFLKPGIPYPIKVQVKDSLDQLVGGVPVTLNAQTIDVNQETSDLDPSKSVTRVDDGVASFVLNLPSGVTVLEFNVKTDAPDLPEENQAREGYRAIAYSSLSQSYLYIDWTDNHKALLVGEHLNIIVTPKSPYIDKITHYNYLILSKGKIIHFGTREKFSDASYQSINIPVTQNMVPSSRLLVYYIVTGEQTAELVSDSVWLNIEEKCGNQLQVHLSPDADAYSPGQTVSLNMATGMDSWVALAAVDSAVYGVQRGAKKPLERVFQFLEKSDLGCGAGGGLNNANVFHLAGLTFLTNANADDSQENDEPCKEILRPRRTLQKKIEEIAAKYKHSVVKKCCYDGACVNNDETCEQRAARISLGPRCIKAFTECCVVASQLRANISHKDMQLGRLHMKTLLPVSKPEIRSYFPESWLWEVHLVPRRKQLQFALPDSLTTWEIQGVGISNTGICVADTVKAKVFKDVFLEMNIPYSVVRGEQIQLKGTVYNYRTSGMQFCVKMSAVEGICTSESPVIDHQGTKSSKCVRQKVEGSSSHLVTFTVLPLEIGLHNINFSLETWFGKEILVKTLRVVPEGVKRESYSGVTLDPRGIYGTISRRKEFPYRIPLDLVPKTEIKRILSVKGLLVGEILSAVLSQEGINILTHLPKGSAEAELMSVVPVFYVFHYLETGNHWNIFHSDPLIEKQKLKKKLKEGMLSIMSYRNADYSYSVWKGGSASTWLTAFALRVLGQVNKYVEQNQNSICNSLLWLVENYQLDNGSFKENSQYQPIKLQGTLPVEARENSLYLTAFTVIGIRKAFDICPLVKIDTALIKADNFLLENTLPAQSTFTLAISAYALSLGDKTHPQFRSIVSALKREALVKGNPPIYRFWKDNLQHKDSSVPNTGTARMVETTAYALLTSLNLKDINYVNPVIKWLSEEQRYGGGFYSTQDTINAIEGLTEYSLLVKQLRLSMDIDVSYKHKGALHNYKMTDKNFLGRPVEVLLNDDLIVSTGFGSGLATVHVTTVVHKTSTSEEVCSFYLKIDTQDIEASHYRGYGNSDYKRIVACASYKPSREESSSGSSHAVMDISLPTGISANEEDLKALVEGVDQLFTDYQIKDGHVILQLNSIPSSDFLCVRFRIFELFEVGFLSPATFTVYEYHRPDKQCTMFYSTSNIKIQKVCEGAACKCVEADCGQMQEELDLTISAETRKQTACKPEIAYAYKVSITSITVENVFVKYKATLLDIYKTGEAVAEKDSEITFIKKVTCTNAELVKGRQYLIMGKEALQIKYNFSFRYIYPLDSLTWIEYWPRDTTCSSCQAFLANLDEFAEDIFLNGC

The first data set has as its target T1, Human C5 (Homo sapiens, UniProt P01031).
T1 construct: purchased Complement Technology
Description: Red blood cell (RBC) hemolysis assay, luminescent (Example 13, Table 22). Also: 1.5% C5-depleted human serum. It counts as cell-based. The note with it: sheep EA cells, […] C5-depleted human serum, 0.5 nM human C5, 1 hour 37° C., luminescence. From the text:
Compound CU0136 is a racemic mixture of Compound CU0186 and CU0187. Numbers in parenthesis following compound numbers indicate alternate enantiomers (as distinguished by retention time during chromatographical separation).
`CCCCCOc1cc(N2CCCN(Cc3cccc(N4CCN(C5COC5)CC4)c3F)C2=O)ccc1OC` [CU0130] came in with an IC50 of 0.147 µM. Same read-out and setting: then `CCCCCOc1cc(N2CCCN(Cc3ccc(CCOC(=O)N(C)C)cc3OC)C2=O)ccc1OC` [CU0204], with 0.0216 µM; and `CCCCCOc1cc(N2CCCN(Cc3ccnc4c3ccn4CC(=O)N3CCCOCC3)C2=O)ccc1OC` [CU0053], with 0.0233 µM; and `COc1ccc(F)cc1CN1CCCN(c2ccc(OC)c(OCc3ccccc3C)c2)C1=O` [CU0182], with 0.936 µM.

For the molecule `CCCCCOc1cc(N2CCCN(Cc3ccc(CCn4cnnn4)cc3OC)C2=O)ccc1OC` [CU0148], 0.036 µM corresponded to half-maximal inhibition (IC50). For the molecule `CCC(F)(F)CCOc1cc(N2CCCN(Cc3ccc(CC(=O)N(C)C)cc3OC)C2=O)ccc1OC` [CU0171], the IC50 came to 0.0451 µM.

Molecule `CCCCCOc1cc(N2CCCN(Cc3ccc(CNC(=O)OCC)cc3OC)C2=O)ccc1OC` [CU0192] returned an IC50 of 0.0191 µM. Same read-out and setting: to `COc1ccc(F)cc1CN1CCCN(c2ccc(OC)c(OCCc3cccc(C(F)(F)F)c3)c2)C1=O` [CU0220] belongs 0.254 µM. As for `CC/C=C\COc1cc(N2CCCN(Cc3cc(F)ccc3OC)C2=O)ccc1OC` [CU0194], the midpoint of inhibition, the IC50, lay at 0.0946 µM. The same measure, in the same setting: then `COc1ccc(F)cc1CN1CCCN(c2ccc(OC)c(OCCc3ccc(C)cc3)c2)C1=O` [CU0219], with 0.221 µM. Same read-out and setting: then `CCCCCOc1cc(N2CCCN(Cc3cccc(C4=CCNCC4)c3OC)C2=O)ccc1OC` [CU0155], with 0.0437 µM.

Regarding `CCCCCOc1cc(N2CCN(Cc3ccnc4c3ccn4CC(=O)N3CCCOCC3)C2=O)ccc1OC` [CU0052], the IC50 was 0.0614 µM.

Consider `CCCCCOc1cc(N2CCCN(Cc3ccnc4c3ccn4CCN3CCOC3=O)C2=O)ccc1OC` [CU0250], for which the concentration for half-maximal inhibition (IC50) is 0.217 µM.

`CCCCCOc1cc(N2CCCN(Cc3ccnc4c3ccn4CCC3CCOCC3)C2=O)ccc1OC` [CU0249] yielded a half-inhibitory concentration (IC50) of 0.386 µM. Still for that read-out and setting: to `CCCCCOc1cc(N2CCN(Cc3ccnc4c3ccn4CC(=O)N3CCOC(COC)C3)C2=O)ccc1OC` (centres unmarked) [CU0047] belongs 3.14 µM. The same measure, in the same setting: then `CCCCCOc1cc(N2CCN(Cc3ccnc4c3ccn4CC(=O)N3CCNC(=O)C3)C2=O)ccc1OC` [CU0058], with 2.49 µM.

`COc1ccc(F)cc1CN1CCCN(c2ccc(OC)c(OCCCC(F)(F)C(F)(F)F)c2)C1=O` [CU0195] gave a half-maximal inhibitory concentration (IC50) of 0.049 µM. `CCC(F)(F)CCOc1cc(N2CCCN(Cc3ccccc3OC)C2=O)ccc1OC` [CU0176] gave an IC50 of 0.111 µM. The same measure, in the same setting: to `CCCCCOc1cc(N2CCCN(Cc3ccc(F)c(C4=CCNCC4)c3)C2=O)ccc1OC` [CU0144] belongs 0.109 µM; to `CCCCCOc1cc(N2CCCN(Cc3cc(OC)cc(C4=CCNCC4)c3)C2=O)ccc1OC` [CU0156], 0.241 µM; to `COc1ccc(F)cc1CN1CCCN(c2ccc(OC)c(OCCCC(C)C)c2)C1=O` [CU0217], 0.0183 µM. `CCCCCOc1cc(N2CCCN(Cc3cccc4c3ccn4CC(=O)N(C)C3CCN(CC)C3)C2=O)ccc1OC` (centres unmarked) [CU0242] showed an IC50 of 0.0082 µM.

In turn, `COc1ccc(N2CCCN(Cc3ccnc4c3ccn4CC(=O)N(C)C)C2=O)cc1OCc1ccccc1` [CU0252] came in with an IC50 of 0.825 µM.

Consider `CCCCCOc1cc(N2CCCN(Cc3ccnc4c3ccn4CC(=O)N3CCCOCC3)C2=O)ccc1OC` [CU0228], for which inhibition was half-maximal at 0.0218 µM (IC50). On the same count and under the same terms, then `CCCCCOc1cc(N2CCCN(Cc3cccc(-c4cnn(CC(C)C)c4)c3F)C2=O)ccc1OC` [CU0126], with 0.153 µM; and `COc1ccc(N2CCCCN(Cc3ccnc4c3ccn4CC(=O)N(C)C)C2=O)cc1OCCCC(C)C` [CU0038], with 0.267 µM; and `CCCCCOc1cc(N2CCCN(C(C)c3ccnc4c3ccn4C3CCN(C)C3=O)C2=O)ccc1OC` (centres unmarked) [CU0040(1)], with 0.0665 µM. For the molecule `CCCCCOc1cc(N2CCCN([C@@H](C)c3cccc4c3ccn4CC(=O)N(C)C)C2=O)ccc1OC` [CU0233], 4.26 µM corresponded to half-maximal inhibition (IC50). In the case of `CCCCCOc1cc(N2CCCN(Cc3cccc(-c4cnn(C(C)OCC)c4)c3F)C2=O)ccc1OC` (centres unmarked) [CU0125], the midpoint of inhibition, the IC50, lay at 0.0736 µM. Still for that read-out and setting: then `CCCCCOc1cc(N2CCCN(Cc3ccc(CN4CCOCC4)cc3OC)C2=O)ccc1OC` [CU0172], with 0.0373 µM; and `CCCCCOc1cc(N2CCCN(Cc3ccc(CCOC(C)C)cc3OC)C2=O)ccc1OC` [CU0203], with 0.03 µM; and `CCCCCOc1cc(N2CCCN(Cc3ccnc4c3ccn4CC3CCCO3)C2=O)ccc1OC` (centres unmarked) [CU0248], with 0.101 µM. For `CCCCCOc1cc(N2CCN(C[C@@H](O)c3ccccc3)C2=O)ccc1OC` [CU0016], the IC50 turned out to be 2.62 µM. Same read-out and setting: then `COc1ccc(F)cc1CN1CCCN(c2ccc(OC)c(OCC[C@@H]3C[C@@H]4CC[C@H]3C4)c2)C1=O` [CU0184], with 0.0324 µM. The same measure, in the same setting: then `C/C=C\CCCOc1cc(N2CCCN(Cc3cc(F)ccc3OC)C2=O)ccc1OC` [CU0225], with 0.0291 µM; and `COc1ccc(F)cc1CN1CCCN(c2ccc(OC)c(OCCCc3ccccc3)c2)C1=O` [CU0183], with 0.238 µM; and `CCCCCOc1cc(N2CCCN(Cc3cc(C4=CCNCC4)ccc3OC)C2=O)ccc1OC` [CU0151], with 0.707 µM. The same measure, in the same setting: then `COc1ccc(F)cc1CN1CCCN(c2ccc(OC)c(OCc3cccc(OC(F)(F)F)c3)c2)C1=O` [CU0221], with 0.741 µM; and `CCCCCOc1cc(N2CCCN(Cc3ccnc4c3ccn4CC3=NCCN3C)C2=O)ccc1OC` [CU0251], with 0.034 µM. `CCCCCOc1cc(N2CCCN(C(C)c3ccnc4c3ccn4C3CCN(C)C3=O)C2=O)ccc1OC` (centres unmarked) [CU0040(2)] had a 50% inhibitory concentration (IC50) of 0.0763 µM. The same measure, in the same setting: then `COc1ccc(F)cc1CN1CCCN(c2ccc(OC)c(OCCC3CCCC3)c2)C1=O` [CU0185], with 0.183 µM; and `CCCCCOc1cc(N2CCCN(Cc3ccc(Cc4nnn[nH]4)cc3OC)C2=O)ccc1OC` [CU0209], with 0.0552 µM; and `CCCCCOc1cc(N2CCCN(Cc3ccccc3C3CC3)C2=O)ccc1OC` [CU0015], with 0.519 µM.

In turn, `CCCCCOc1cc(N2CCCN(Cc3cccc(N4CCOCC4)c3F)C2=O)ccc1OC` [CU0132] displayed an IC50 of 0.301 µM. On the same count and under the same terms, to `CCCCCOc1cc(N2CCCN(Cc3cc(C)cc4c3ccn4CC(=O)N(C)C)C2=O)ccc1OC` [CU0236] belongs 0.203 µM; to `CCCCCOc1cc(N2CCCN(Cc3cccc4c3ccn4Cc3cccnc3)C2=O)ccc1OC` [CU0023], 0.0207 µM. `COc1ccc(F)cc1CN1CCCN(c2ccc(OC)c(OCCCC3CCCCC3)c2)C1=O` [CU0222] registered an IC50 of 0.0699 µM.

In the case of `COc1cccc(COc2cc(N3CCCN(Cc4cc(F)ccc4OC)C3=O)ccc2OC)c1` [CU0227], the half-inhibitory concentration (IC50) came to 0.362 µM. `CCCCCOc1cc(N2CCCN(Cc3ccc(F)c4c3ccn4CC(=O)N(C)C)C2=O)ccc1OC` [CU0230] yielded a 50% inhibitory concentration (IC50) of 0.0605 µM. Same read-out and setting: then `CCCCCOc1cc(N2CCCN(Cc3ccc(Br)cc3OC)C2=O)ccc1OC` [CU0153], with 0.233 µM. Same read-out and setting: to `CCCCCOc1cc(N2CCCN(Cc3cc(OC)cc(-c4cnn(C5CCN(C)CC5)c4)c3)C2=O)ccc1OC` [CU0158] belongs 0.0278 µM.

Molecule `CCCCCOc1cc(N2CCCN(Cc3ccc(Cl)cc3OC)C2=O)ccc1OC` [CU0166] registered an IC50 of 0.0921 µM.

`CCC(F)(F)CCOc1cc(N2CCCN(Cc3ccc(CC(=O)N4CCCOCC4)cc3OC)C2=O)ccc1OC` [CU0174] returned a concentration for half-maximal inhibition (IC50) of 0.0367 µM. In the case of `CCCCCOc1cc(N2CCCN(Cc3ccc(Cc4ncco4)cc3OC)C2=O)ccc1OC` [CU0208], inhibition was half-maximal at 0.0591 µM (IC50).

Take `COc1ccc(F)cc1CN1CCCN(c2ccc(OC)c(OCCc3ccccc3)c2)C1=O` [CU0193]: it took 0.045 µM to reach half-maximal inhibition (IC50). On to `CCCCCOc1cc(N2CCCN(Cc3ccc(C)c4c3ccn4CC(=O)N(C)C)C2=O)ccc1OC` [CU0229], for which 0.0889 µM corresponded to half-maximal inhibition (IC50). On the same count and under the same terms, to `CCCCCOc1cc(N2CCCN(Cc3ccnc4c3ccn4CCN3CCCC3)C2=O)ccc1OC` [CU0254] belongs 0.0187 µM; to `COc1ccc(F)cc1CN1CCCN(c2ccc(OC)c(OCCc3ccccc3C)c2)C1=O` [CU0215], 0.0341 µM; to `CCCCCOc1cc(N2CCCN(Cc3ccc(CC(=O)N4CCCC4)cc3OC)C2=O)ccc1OC` [CU0006], 0.0195 µM. `COc1ccc(F)cc1CN1CCCN(c2ccc(OC)c(OCc3cccc(C(F)(F)F)c3)c2)C1=O` [CU0223] had an IC50 of 0.4 µM.

`CCCCCOc1cc(N2CCCN(Cc3cccc4c3ccn4CC(=O)N(C)C)C2=O)ccc1C1CC1` [CU0026] returned an IC50 of 0.0625 µM.

Test system in the next data set: not listed separately
Description: Kinetic solubility in PBS pH 7.4, HPLC-UV (Example 21, Table 27). It counts as physicochemical. The note with it: phosphate buffered saline, aqueous buffer, kinetic from dmso stock, 0.5 M PBS, shaken minimum 24 h at approximately 25° C., HPLC-UV 270 nm. The method, then:
Compounds were analyzed for kinetic solubility values using a standard kinetic solubility assay format. First, test compounds were dissolved in DMSO (Aldrich Chemical Co., Milwaukee, Wis., USA) at a concentration of 0.010 mol/L and used to prepare standard calibrators in DMSO solution. 500.0 μM, 250.0 μM, 125.0 μM, 62.5 μM, 31.2 μM, and 15.6 μM standards were prepared in a Greiner UV-Star clear V-bottom 96-well plate (Greiner-Bio One, Germany) for generating a standard curve. Using Alfa Aesar's Sodium phosphate, 0.2 M buffer solution, pH 7.4 (Alfa Aesar, Haverhill, Mass., USA), aqueous phosphate buffered saline (PBS) was prepared by diluting with Milli-Q water for a final concentration of 0.05 M. The pH of the solution was adjusted to 7.4±0.1 using 0.1 M hydrochloric acid (Fisher Scientific Waltham, Mass., USA) or 0.1 M aqueous sodium hydroxide (Fisher Scientific Waltham, Mass., USA).
10 μL of 0.010 mol/L DMSO test compound stock solutions were pipetted to separate 1.5 mL centrifuge tubes in triplicate. To these tubes, 190 μl of 0.05 M PBS was added. Each tube was gently vortexed for 5 sec. The tubes were shaken for a minimum of 24 h at approximately 25° C. After shaking, the solutions were transferred to 0.5 mL centrifuge filter tubes (MilliporeSigma, Burlington, Mass., USA) and centrifuged at 10,000 rpm for 5 min. After centrifugation, supernatants were collected and used for compound concentration analysis.
Compound concentrations in each solution were determined using high pressure liquid chromatography (HPLC) with ultraviolet (UV) detection and comparison with external standards. For HPLC, a Waters Acquity CSH Phenyl-Hexyl column (2.1 mm×50 mm, 1.7 μm) was used together with a generic gradient method on a Waters H-class system equipped with a diode array detector: Solvent A=0.1% formic acid in water, Solvent B=0.1% formic acid in acetonitrile (MilliporeSigma, Burlington, Mass., USA), flow=0.65 mL/min, (t=0 min: 95% A-5% B, t=4.75 min: 0% A-100% B, t=4.85 min: 0% A-100% B, t=4.86 min: 95% A-5% B, t=5 min: 95% A-5% B). UV quantifications were performed at 270 nm. Solution concentrations were calculated using Microsoft Excel.
In the case of `CCCCCOc1cc(N2CCCN(Cc3cncc4c3c(Cl)cn4CC(=O)N(C)C)C2=O)ccc1OC` [CU0673], the kinetic solubility stood at 11 µM (≈ 5.96 µg/mL).
